Measured values taken from PubChem BioAssay (NCI).
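Values below derive from 48-hour exposures of cells grown in 96-well plates, with endpoints linearly interpolated between the two concentrations bracketing the appropriate inhibition level. TGI: total growth inhibition.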

Tests used:
Assay in all cases: NCI anticancer screen, dose series, 48 h
MDA-MB-231 breast = system: MDA-MB-231 breast
MOLT-4 leukemia = system: MOLT-4 leukemia
M14 melanoma = system: M14 melanoma
SK-OV-3 ovarian = system: SK-OV-3 ovarian
T-47D breast = system: T-47D breast
CCRF-CEM leukemia = system: CCRF-CEM leukemia
RPMI-8226 leukemia = system: RPMI-8226 leukemia
SF-539 CNS = system: SF-539 CNS
PC-3 prostate = system: PC-3 prostate
SK-MEL-2 melanoma = system: SK-MEL-2 melanoma
DU-145 prostate = system: DU-145 prostate
SNB-75 CNS = system: SNB-75 CNS
TK-10 renal = system: TK-10 renal
NCI-H522 lung = system: NCI-H522 lung
OVCAR-3 ovarian = system: OVCAR-3 ovarian
NCI-H23 lung = system: NCI-H23 lung
HCT-116 colon = system: HCT-116 colon
OVCAR-4 ovarian = system: OVCAR-4 ovarian
MDA-MB-435 = system: MDA-MB-435
ACHN renal = system: ACHN renal
SR leukemia = system: SR leukemia
LOX IMVI melanoma = system: LOX IMVI melanoma
SK-MEL-28 melanoma = system: SK-MEL-28 melanoma
HCC-2998 colon = system: HCC-2998 colon
HT29 colon = system: HT29 colon
NCI-H460 lung = system: NCI-H460 lung
SF-268 CNS = system: SF-268 CNS
U251 CNS = system: U251 CNS
BT-549 breast = system: BT-549 breast
COLO 205 colon = system: COLO 205 colon
UACC-257 melanoma = system: UACC-257 melanoma
786-0 renal = system: 786-0 renal
A498 renal = system: A498 renal
SN12C renal = system: SN12C renal
NCI/ADR-RES ovarian = system: NCI/ADR-RES ovarian
K-562 leukemia = system: K-562 leukemia
SK-MEL-5 melanoma = system: SK-MEL-5 melanoma
KM12 colon = system: KM12 colon
UO-31 renal = system: UO-31 renal
EKVX NSCLC = system: EKVX NSCLC
RXF 393 renal = system: RXF 393 renal
HCT-15 colon = system: HCT-15 colon
UACC-62 melanoma = system: UACC-62 melanoma
HS 578T breast = system: HS 578T breast
OVCAR-8 ovarian = system: OVCAR-8 ovarian
MCF7 breast = system: MCF7 breast
SF-295 CNS = system: SF-295 CNS
SNB-19 CNS = system: SNB-19 CNS
CAKI-1 renal = system: CAKI-1 renal
IGROV1 ovarian = system: IGROV1 ovarian
HOP-62 NSCLC = system: HOP-62 NSCLC
HOP-92 NSCLC = system: HOP-92 NSCLC
MDA-N = system: MDA-N
HL-60(TB) leukemia = system: HL-60(TB) leukemia
A549 NSCLC = system: A549 NSCLC
OVCAR-5 ovarian = system: OVCAR-5 ovarian
SW-620 colon = system: SW-620 colon

Measured: TGI

O=C(Nc1ccccc1)c1cc(S(=O)(=O)N2CCNC2=O)c(S)cc1Cl
> 100 µM: all assays above
